Key:
[1] = target: T1, Human vanilloid receptor (hVR1) (Homo sapiens, UniProt Q8NER1); assay: Capsaicin-induced Ca2+ influx in the human VR1-transfected CHO cell line (Assay 1); type: cell-based; conditions: human VR1-CHOluc9aeq cells, stimulation with 10 nM capsaicin, Fluo-3 fluorescence (FDSS-3000); read-out: Activity Class (IC50)
T1 construct: expressed in transfected cells
Excerpt: [Measurement of Capsaicin-induced Ca^2+ influx in the Human VR1-transfected CHO Cell Line] (Assay 1)
• (1) Establishment of the Human VR1-CHOluc9aeq Cell Line • Human vanilloid receptor (hVR1) cDNA was cloned from libraries of axotomized dorsal root ganglia (WO 00/29577). The cloned hVR1 cDNA was constructed with pcDNA3 vector and transfected into a CHOluc9aeq cell line. The cell line contains aequorin and CRE-luciferase reporter genes as read-out signals. The transfectants were cloned by limiting dilution in selection medium (DMEM/F12 medium (Gibco BRL) supplemented with 10%
FCS, 1.4 mM Sodium pyruvate, 20 mM HEPES, 0.15% Sodium bicarbonate, 100 U/ml penicillin, 100 μg/ml streptomycin, 2 mM glutamine, non-essential amino acids and 2 mg/ml G418). Ca^2+ influx was examined in the capsaicin-stimulated clones. A high responder clone was selected and used for furter experiments in the project. The human VR1-CHOluc9aeq cells were maintained in the selection medium and passaged every 3-4 days at 1-2.5×10^5 cells/flask ([…]). • (2) Measurement of Ca^2+ Influx Using FDSS-3000 • Human VR1-CHOluc9aeq cells were suspended in a culture medium which is the same as the selection medium except for G418 and seeded at a density of 1,000 cells per well into 384-well plates (black walled clear-base/Nalge Nunc International). Following the culture for 48 hrs the medium was changed to 2 μM Fluo-3 AM (Molecular Probes) and 0.02% Puronic F-127 in assay buffer (Hank's balanced salt solution (HBSS), 17 mM HEPES (pH7.4), 1 mM Probenecid, 0.1% BSA) and the cells were incubated for 60 min at 25° C. After washing twice with assay buffer the cells were incubated with a test compound or vehicle for 20 min at 25° C. Mobilization of cytoplasmic Ca^2+ was measured by FDSS-3000 (λex=488 nm, λem=540 nm/Hamamatsu Photonics) for 60 sec after the stimulation with 10 nM capsaicin. Integral R was calculated and compared with controls. [Measurement of the Capsaicin-induced Ca^2+ Influx in Primary Cultured Rat Dorsal Root Ganglia Neurons] (Assay 2) • (1) Preparation of Rat Dorsal Root Ganglia Neurons • New born Wister rats (5-11 days) were sacrificed and dorsal root ganglia (DRG) was removed. DRG was incubated with 0.1% trypsin (Gibco BRL) in PBS(−) (Gibco BRL) for 30 min at 37° C., then a half volume of fetal calf serum (FCS) was added and the cells were spun down. The DRG neuron cells were resuspended in Ham F12/5% FCS/5% horse serum (Gibco BRL) and dispersed by repeated pipetting and passing through 70 μm mesh (Falcon). The culture plate was incubated for 3 hours at 37° C. to remove contaminating Schwann cells. Non-adherent cells were recovered and further cultured in laminin-coated 384 well plates (Nunc) at 1×10^4 cells/50 μl/well for 2 days in the presence of 50 ng/ml recombinant rat NGF (Sigma) and 50 μM 5-fluorodeoxyuridine (Sigma). • (2) Ca^2+ Mobilization Assay • DRG neuron cells were washed twice with HBSS supplemented with 17 mM BEPES (pH 7.4) and 0.1% BSA. After incubating with 2 μM fluo-3AM (Volectuar Probe), 0.02% PF127 (Gibco BRL) and 1 mM probenecid (Sigma) for 40 min at 37° C., cells were washed 3 times. The cells were incubated with VR1 antagonists or vehicle (dimethylsulfoxide) and then with 1 μM capsaicin in FDSS-6000 (λex=480 mn, λem=520 nm/Hamamatsu Photonics). The fluorescence changes at […] were monitored for 2.5 min. Integral R was calculated and compared with controls. [Organ Bath Assay to Measure the Capsaicin-induced Bladder Contraction] (Assay 3) • Male Wistar rats (10 week old) were anesthetized with ether and sacrificed by dislocating the necks. The whole urinary bladder was excised and placed in oxygenated Modified Krebs-Henseleit solution (pH 7.4) of the following composition (112 mM NaCl, 5.9 mM KCl, 1.2 mM MgCl2, 1.2 mM NaH2PO4, 2 mM CaCl2, […], 12 mM glucose). Contractile responses of the urinary bladder were studied as described previously [Maggi C A et al: Br. J. Pharmacol. 108: 801-805, 1993]. […]

T1 sequence (Q8NER1 whole entry): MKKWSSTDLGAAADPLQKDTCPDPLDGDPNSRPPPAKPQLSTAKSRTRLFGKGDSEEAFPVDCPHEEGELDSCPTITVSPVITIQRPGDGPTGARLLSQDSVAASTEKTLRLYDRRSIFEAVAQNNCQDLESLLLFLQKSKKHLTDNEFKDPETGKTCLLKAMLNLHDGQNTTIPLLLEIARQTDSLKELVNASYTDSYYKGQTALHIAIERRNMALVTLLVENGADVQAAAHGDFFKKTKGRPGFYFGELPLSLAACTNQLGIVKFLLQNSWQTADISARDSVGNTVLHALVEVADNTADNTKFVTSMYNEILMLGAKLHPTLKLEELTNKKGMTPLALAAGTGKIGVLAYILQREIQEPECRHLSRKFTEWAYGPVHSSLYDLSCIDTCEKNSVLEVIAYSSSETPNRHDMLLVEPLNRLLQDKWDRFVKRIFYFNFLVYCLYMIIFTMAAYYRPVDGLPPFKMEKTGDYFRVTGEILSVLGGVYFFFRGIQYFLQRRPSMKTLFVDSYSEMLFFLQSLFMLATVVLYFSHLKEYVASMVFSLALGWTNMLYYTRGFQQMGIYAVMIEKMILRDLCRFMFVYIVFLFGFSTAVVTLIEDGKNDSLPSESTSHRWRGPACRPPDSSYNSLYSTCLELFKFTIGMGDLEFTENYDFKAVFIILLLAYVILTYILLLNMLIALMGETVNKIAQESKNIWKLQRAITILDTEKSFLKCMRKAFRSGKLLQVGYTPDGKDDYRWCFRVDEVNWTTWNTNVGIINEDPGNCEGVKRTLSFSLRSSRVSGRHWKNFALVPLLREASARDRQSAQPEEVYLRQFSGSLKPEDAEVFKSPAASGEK

Row | Compound | IC50 [1] [nM] | melting point [°C]
1 | O=C(Nc1cccc2c1C[C@H](O)CC2)C1CCN(c2cccc(OC(F)(F)F)c2)CC1 [Example 1-16, N-[(7R)-7-Hydroxy-5,6,7,8-tetrahydronaphthalen-1-yl]-1-[3-trifluoromethoxy-phenyl]piperidine-4-carboxamide] | < 100 | 
2 | O=C(Nc1cccc2c1C[C@H](O)CC2)C1CCN(c2ccc(C(F)(F)F)cc2Cl)CC1 [Example 1-13, 1-[2-Chloro-4-(trifluoromethyl)phenyl]-N-[(7R)-7-hydroxy-5,6,7,8-tetrahydronaphthalen-1-yl]piperidine-4-carboxamide] | < 100 | 226
3 | O=C(Nc1cccc2c1CC(O)CC2)C1CCN(c2ccccc2F)CC1 (stereo not drawn) [Example 1-6, 1-(2-Fluorophenyl)-N-(7-hydroxy-5,6,7,8-tetrahydronaphthalen-1-yl)piperidine-4-carboxamide] | < 100 | 207
4 | O=C(Nc1cccc2c1C[C@H](O)CC2)C1CCN(c2ccccc2)CC1 [Example 1-14] | < 100 | 
5 | O=C(Nc1cccc2c1C[C@H](O)CC2)C1CCN(c2ccc(C(F)(F)F)cc2)CC1 [Example 1-25, N-[(7R)-7-Hydroxy-5,6,7,8-tetrahydronaphthalen-1-yl]-1-[4-trifluoromethyl-phenyl]piperidine-4-carboxamide] | < 100 | 
6 | O=C(Nc1cccc2c1C[C@H](O)CC2)C1CCN(c2ccc(C(F)(F)F)cn2)CC1 [Example 1-24, N-[(7R)-7-Hydroxy-5,6,7,8-tetrahydronaphthalen-1-yl]-1-[5-(trifluoromethyl)-pyridin-2-yl]piperidine-4-carboxamide] | < 100 | 
7 | O=C(Nc1cccc2c1C[C@H](O)CC2)C1CCN(c2ccc(Cl)cc2Cl)CC1 [Example 1-17, 1-[2,4-Dichlorophenyl]-N-[(7R)-7-hydroxy-5,6,7,8-tetrahydronaphthalen-1-yl]piperidine-4-carboxamide] | < 100 | 
8 | O=C(Nc1cccc2c1CC(O)CC2)C1CCN(c2ccc(C(F)(F)F)cc2[N+](=O)[O-])CC1 (stereo not drawn) [Example 1-5, N-(7-Hydroxy-5,6,7,8-tetrahydronaphthalen-1-yl)-1-[2-nitro(trifluoromethyl)phenyl]piperidine-4-carboxamide] | < 100 | 218
9 | O=C(Nc1cccc2c1C[C@@H](O)CC2)C1CCN(c2ccc(C(F)(F)F)cc2Cl)CC1 [Example 1-1, 1-[2-Chloro-4-(trifluoromethyl)phenyl]-N-[(7S)-7-hydroxy-5,6,7,8-tetrahydro-naphthalen-1-yl]piperidine-4-carboxamide] | < 100 | 
10 | O=C(Nc1cccc2c1CC(O)CC2)C1CCN(c2ccccc2[N+](=O)[O-])CC1 (stereo not drawn) [Example 1-4, N-(7-Hydroxy-5,6,7,8-tetrahydronaphthalen-1-yl)-1-(2-nitrophenyl)piperidine-4-carboxamide] | < 100 | 170
11 | O=C(Nc1cccc2c1CC(O)CC2)C1CCN(c2ccc(C(F)(F)F)cc2)CC1 (stereo not drawn) [Example 1-9, N-(7-Hydroxy-5,6,7,8-tetrahydronaphthalen-1-yl)-1-[4-(trifuoromethyl)phenyl]piperidine-4-carboxamide] | < 100 | 222
12 | O=C(Nc1cccc2c1C[C@H](O)CC2)C1CCN(c2ccc(OC(F)(F)F)cc2)CC1 [Example 1-19, N-[(7R)-7-Hydroxy-5,6,7,8-tetrahydronaphthalen-1-yl]-1-[4-trifluoromethoxy-phenyl]piperidine-4-carboxamide] | < 100 | 
13 | O=C(Nc1cccc2c1CC(O)CC2)C1CCN(c2ccc(C(F)(F)F)cc2Cl)CC1 (stereo not drawn) [Example 1-10, 1-[2-Chloro-4-(trifluoromethyl)phenyl]-N-(7-hydroxy-5,6,7,8-tetrahydronaphthalen-1-yl)piperidine-4-carboxamide] | < 100 | 226

Next, values leading:

Row | IC50 [1] [nM] | melting point [°C] | Compound
14 | < 100 | 205 | O=C(Nc1cccc2c1C[C@H](O)CC2)C1CCN(c2ccc(F)cc2)CC1 [Example 1-11, 1-(4-Fluorophenyl)-N-[(7R)-7-hydroxy-5,6,7,8-tetrahydronaphthalen-1-yl]piperidine-4-carboxamide]
15 | < 100 | 205 | O=C(Nc1cccc2c1C[C@@H](O)CC2)C1CCN(c2ccc(F)cc2)CC1 [Example 1-12, 1-(4-Fluorophenyl)-N-[(7S)-7-hydroxy-5,6,7,8-tetrahydronaphthalen-1-yl]piperidine-4-carboxamide]
16 | < 100 |  | O=C(Nc1cccc2c1C[C@H](O)CC2)C1CCN(c2ccc([N+](=O)[O-])cc2Cl)CC1 [Example 1-22, 1-[2-Chloro-4-nitrophenyl]-N-[(7R)-7-hydroxy-5,6,7,8-tetrahydronaphthalen-1-yl]piperidine-4-carboxamide]
17 | < 100 |  | O=C(Nc1cccc2c1C[C@H](O)CC2)C1CCN(c2cccc(Cl)c2)CC1 [Example 1-2, 1-[3-Chlorophenyl]-N-[(7R)-7-hydroxy-5,6,7,8-tetrahydronaphthalen-1-yl]piperidine-4-carboxamide]
18 | < 100 |  | O=C(Nc1cccc2c1C[C@H](O)CC2)C1CCN(c2cccc(C(F)(F)F)c2)CC1 [Example 1-15, N-[(7R)-7-Hydroxy-5,6,7,8-tetrahydronaphthalen-1-yl]-1-[3-trifluoromethyl-phenyl]piperidine-4-carboxamide]
19 | < 100 |  | CC(=O)Nc1cc(C(F)(F)F)ccc1N1CCC(C(=O)Nc2cccc3c2C[C@H](O)CC3)CC1 [Example 1-23]
20 | < 100 |  | O=C(Nc1cccc2c1C[C@H](O)CC2)C1CCN(c2ncc(Cl)cn2)CC1 [Example 1-21, 1-[5-Chloropyrimidin-2-yl]-N-[(7R)-7-hydroxy-5,6,7,8-tetrahydronaphthalen-1-yl]piperidine-4-carboxamide]
21 | < 100 |  | O=C(Nc1cccc2c1C[C@H](O)CC2)C1CCN(c2nccc(C(F)(F)F)n2)CC1 [Example 1-20, N-[(7R)-7-Hydroxy-5,6,7,8-tetrahydronaphthalen-1-yl]-1-[4-trifluoromethyl-pyrimidin-2-yl]-piperidine-4-carboxamide]
22 | < 100 |  | O=C(Nc1cccc2c1C[C@H](O)CC2)C1CCN(c2ccc(OC(F)(F)F)c(OC(F)(F)F)c2)CC1 [Example 1-18, 1-[3,4-Bis[trifluoromethoxy]phenyl]-N-[(7R)-7-hydroxy-5,6,7,8-tetrahydro-naphthalen-1-yl]piperidine-4-carboxamide]
23 | < 100 | 182 | O=C(Nc1cccc2c1CC(O)CC2)C1CCN(c2ccc(Cl)cc2C(F)(F)F)CC1 (stereo not drawn) [Example 1-8, 1-[4-Chloro-2-(trifluoromethyl)phenyl]-N-(7-hydroxy-5,6,7,8-tetrahydronaphthalen-1-yl)piperidine-4-carboxamide]
24 | < 100 | 210 | O=C(Nc1cccc2c1CC(O)CC2)C1CCN(c2ccccc2Cl)CC1 (stereo not drawn) [Example 1-3]
25 | < 100 | 205 | O=C(Nc1cccc2c1CC(O)CC2)C1CCN(c2ccc(F)cc2)CC1 (stereo not drawn) [Example 1-7, 1-(4-Fluorophenyl)-N-(7-hydroxy-5,6,7,8-tetrahydronaphthalen-1-yl)piperidine-4-carboxamide]

From patent US7615557B2, “Tetrahydro-naphthalene and urea derivatives” (Xention Limited, priority 2003, dated 2009)
